The target of test [1] is neuraminidase from the H1N9 strain of influenza (Influenza A virus, UniProt P03472). The experiment in a line: biochemical. To be noted: neuraminidase enzyme inhibition data (IC50 values) Flu A.
The target in a further test is Flu B neuraminidase (Influenza B virus, UniProt P03474). As to the kind of experiment: biochemical. To be noted: neuraminidase enzyme inhibition data (IC50 values) Flu B.

Structures can show the parent of a compound that is named as a salt.

Flu B neuraminidase, sequence (P03474 whole entry): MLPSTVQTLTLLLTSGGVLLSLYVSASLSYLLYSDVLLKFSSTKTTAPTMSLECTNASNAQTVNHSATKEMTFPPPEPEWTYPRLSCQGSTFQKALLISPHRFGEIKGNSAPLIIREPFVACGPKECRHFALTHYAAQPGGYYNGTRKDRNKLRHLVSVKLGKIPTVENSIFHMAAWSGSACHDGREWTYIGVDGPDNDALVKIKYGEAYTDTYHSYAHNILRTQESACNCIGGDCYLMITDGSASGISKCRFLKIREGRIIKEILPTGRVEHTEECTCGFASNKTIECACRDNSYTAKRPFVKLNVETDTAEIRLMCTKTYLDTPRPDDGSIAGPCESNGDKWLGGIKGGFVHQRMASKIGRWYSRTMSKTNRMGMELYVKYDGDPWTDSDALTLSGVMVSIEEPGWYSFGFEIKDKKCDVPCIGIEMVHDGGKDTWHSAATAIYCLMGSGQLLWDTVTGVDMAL
neuraminidase from the H1N9 strain of influenza, sequence (P03472 83-470 limits assumed): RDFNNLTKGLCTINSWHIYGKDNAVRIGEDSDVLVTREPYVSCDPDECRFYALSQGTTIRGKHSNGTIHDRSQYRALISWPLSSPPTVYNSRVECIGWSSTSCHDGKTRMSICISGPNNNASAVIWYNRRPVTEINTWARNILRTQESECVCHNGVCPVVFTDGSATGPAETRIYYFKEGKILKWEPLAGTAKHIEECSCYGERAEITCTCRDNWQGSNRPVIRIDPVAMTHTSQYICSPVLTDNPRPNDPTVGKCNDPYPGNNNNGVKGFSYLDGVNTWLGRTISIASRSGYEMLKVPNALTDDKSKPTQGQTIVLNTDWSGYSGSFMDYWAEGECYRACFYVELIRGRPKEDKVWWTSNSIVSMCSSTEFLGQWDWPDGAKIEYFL

With `CCC(CC)C(NC(C)=O)C1CC(C(=O)O)CC1O` (single isomer, unassigned) [Compound 65, (±) t-3-(1′-Acetylamino-2′-ethyl)butyl-t-4-hydroxycyclopentan-r-1-carboxylic Acid], the IC50 (in test [1]; against Flu B neuraminidase) was 1000 to 100000 nM each time.
For `CCC(CC)C(NC(C)=O)C1CC(C(=O)O)CC1N` (single isomer, unassigned) [Compound 86, (±) t-3-[(1′-Acetylamino-2′-ethyl)butyl]-c-4-aminocyclopentan-r-1-carboxylic Acid], the half-inhibitory concentration (IC50) (in test [1]; against Flu B neuraminidase) was 1000 to 100000 nM each time.
As for `CCC(CC)C(NC(C)=O)C1C(N)CC(C(=O)O)C1O` (single isomer, unassigned) [Compound 162, (±)-t-3-(1′-Acetylamino-2′-ethyl)butyl-c-4-amino-t-2-hydroxycyclopentan-r-1-carboxylic Acid], the IC50 (in test [1]; against Flu B neuraminidase) was less than 1000 nM in each case.
On to `CCCC(CCC)C(NC(C)=O)C1C(N)CC(C(=O)O)C1O` (single isomer, unassigned) [Compound 163, (±)-t-3-(1′-Acetylamino-2′-propyl)pentyl-c-4-amino-t-2-hydroxycyclopentan-r-1-carboxylic Acid], for which the IC50 (in test [1]; against Flu B neuraminidase) was less than 1000 nM in each case.
For `CCCCC(NC(C)=O)C1C(N)CC(C(=O)O)C1O` (single isomer, unassigned) [Compound 165], the half-inhibitory concentration (IC50) (in test [1]; against Flu B neuraminidase) was 1000 to 100000 nM each time.
Regarding `CCC(C)C(NC(C)=O)C1C(N)CC(C(=O)O)C1O` (single isomer, unassigned) [Compound 166, (±)-t-3-(1′-Acetylamino-2′-methyl)butyl-c-4-amino-t-2-hydroxycyclopentan-r-1-carboxylic Acid], the 50% inhibitory concentration (IC50) is less than 1000 nM in test [1] and 1000 to 100000 nM on Flu B neuraminidase.
As to `CCC(CC)C(NC(C)=O)C1C(NC(=N)N)CC(C(=O)O)C1O` (single isomer, unassigned) [Compound 179, (±)-t-3-(1′-Acetylamino-2′-ethyl)butyl-c-4-[(amino-imino)methyl]amino-t-2-hydroxycyclopentan-r-1-carboxylic Acid], the IC50 in test [1] is less than 1000 nM.
Take `CCC(CC)CC(NC(C)=O)C1C(NC(=N)N)CC(C(=O)O)C1O` (single isomer, unassigned) [Compound 180, (±)-t-3-(1′-Acetylamino-3′-ethyl)pentyl-c-4-[(amino-imino)methyl]amino-t-2-hydroxycyclopentan-r-1-carboxylic Acid]: the IC50 (in test [1]; on Flu B neuraminidase) was less than 1000 nM each time.
In the case of `CCCCC(NC(C)=O)C1C(NC(=N)N)CC(C(=O)O)C1O` (single isomer, unassigned) [Compound 181], the concentration for half-maximal inhibition (IC50) (in test [1]; at Flu B neuraminidase) was less than 1000 nM each time.
Turning to `CCC(CC)C(NC(C)=O)C1CC(C(=O)O)CC1N` (single isomer, unassigned) [Compound 200, (±)-t-3-(1′-Acetylamino-2′-ethyl)butyl-c-4-aminocyclopentan-1-carboxylic Acid], the 50% inhibitory concentration (IC50) (in test [1]; against Flu B neuraminidase) was less than 1000 nM in each case.
As to `CCC(CC)C(NC(C)=O)C1CC(C(=O)O)CC1NC(=N)N` (single isomer, unassigned) [Compound 211, (±)-t-3-(1′-Acetylamino-2′-ethyl)butyl-c-4-[(amino-imino)methyl]-aminocyclopentan-r-1-carboxylic Acid], the IC50 in test [1] was less than 1000 nM.
As to `CCC(CC)C(NC(C)=O)[C@@H]1[C@H](O)[C@@H](C(=O)O)C[C@H]1N` (stereo partly drawn) [Compound 160, (1S,2S,3R,4R,1′S)-(−)-3-(1′-Acetylamino-2′-ethyl)butyl-4-amino-2-hydroxycyclopentan-1-carboxylic Acid], the half-inhibitory concentration (IC50) (in test [1]; at Flu B neuraminidase) was less than 1000 nM throughout.
Take `CCC(CC)C(NC(C)=O)[C@@H]1[C@H](O)[C@@H](C(=O)O)C[C@H]1NC(=N)N` (stereo partly drawn) [Compound 178, (1S,2S,3R,4R,1′S)-(−)-3-(1′-Acetylamino-2′-ethyl)butyl-4-[(aminoimino)methyl]amino-2-hydroxycyclopentan-1-carboxylic Acid]: the half-maximal inhibitory concentration (IC50) in test [1] is less than 1000 nM.
As to `CCC(CC)C(NC(C)=O)[C@@H]1[C@H](O)[C@@H](C(=O)O)C[C@H]1NC(=N)NC` (stereo partly drawn) [Compound 182, (1S,2S,3R,4R,1′S)-(−)-3-(1′-Acetylamino-2′-ethyl)butyl-4-[(N-methylamino-imino)methyl]amino-2-hydroxycyclopentan-1-carboxylic Acid], the half-maximal inhibitory concentration (IC50) (in test [1]; against Flu B neuraminidase) was less than 1000 nM throughout.
Turning to `CCCC(CCC)C(NC(C)=O)[C@@H]1[C@H](O)[C@@H](C(=O)O)C[C@H]1NC(=N)N` (stereo partly drawn) [Compound 183, (1S,2S,3R,4R,1′S)-(−)-3-(1′-Acetylamino-2′-propyl)pentyl-4-[(amino-imino)methyl]amino-2-hydroxycyclopentan-1-carboxylic Acid], the IC50 (in test [1]; on Flu B neuraminidase) was less than 1000 nM throughout.
Consider `CCC(CC)C(NC(C)=O)[C@@H]1C[C@@H](C(=O)O)C[C@H]1N` (stereo partly drawn) [Compound 199, (1R,3R,4R,1′S)-(−)-3-(1′-Acetylamino-2′-ethyl)butyl-4-aminocyclopentan-1-carboxylic Acid], for which the half-maximal inhibitory concentration (IC50) (in test [1]; against Flu B neuraminidase) was less than 1000 nM throughout.
In turn, `CCC(CC)C(NC(C)=O)[C@@H]1C[C@@H](C(=O)O)C[C@H]1NC(=N)N` (stereo partly drawn) [Compound 209, (1R,3R,4R,1′S)-(−)-3-(1′-Acetylamino-2′-ethyl)butyl-4-(aminoimino)methyl-aminocyclopentan-1-carboxylic Acid] gave an IC50 in test [1] of less than 1000 nM.
As for `CCCC(CCC)C(NC(C)=O)[C@@H]1C[C@@H](C(=O)O)C[C@H]1NC(=N)N` (stereo partly drawn) [Compound 210, (1R,3R,4R,1′S)-(−)-3-(1′-Acetylamino-2′-propyl)pentyl-4-[(amino-imino)methyl]aminocyclopentan-1-carboxylic Acid], the 50% inhibitory concentration (IC50) (in test [1]; against Flu B neuraminidase) was less than 1000 nM each time.
Turning to `CCC(CC)C(NC(C)=O)[C@@H]1C[C@@H](C(=O)O)C[C@H]1NC(=N)NC` (stereo partly drawn) [Compound 212, (1R,3R,4R,1′S)-(−)-3-(1′-Acetylamino-2′-ethyl)butyl-4-[(N-methylamino-imino)methyl]aminoclopentan-1-carboxylic Acid], the half-maximal inhibitory concentration (IC50) (in test [1]; against Flu B neuraminidase) was less than 1000 nM throughout.
`CCC(CC)C(NC(C)=O)[C@@H]1C=C(C(=O)O)C[C@H]1NC(=N)N` (stereo partly drawn) [Compound 219, (3R,4R,1′S)-(−)-3-(1′-Acetylamino-2′-ethyl)butyl-4-[(amino-imino)methyl]amino-cyclopent-1-en-1-carboxylic Acid Hydrochloride]: the concentration for half-maximal inhibition (IC50) (in test [1]; against Flu B neuraminidase) was less than 1000 nM throughout.

The values above are taken from patent publication US6562861B1 (priority 1997, dated 2003).
